Laboratory results published in BindingDB's records for patent US20250084074 (Merck Patent, 2025).

The molecules below were run against T1, Kinesin-like protein KIFC1 (Homo sapiens, UniProt Q9BW19) (assay: Inhibitory Activities Against HSET-HSET ADP-Glo Assay).
T1 sequence (Q9BW19 whole entry): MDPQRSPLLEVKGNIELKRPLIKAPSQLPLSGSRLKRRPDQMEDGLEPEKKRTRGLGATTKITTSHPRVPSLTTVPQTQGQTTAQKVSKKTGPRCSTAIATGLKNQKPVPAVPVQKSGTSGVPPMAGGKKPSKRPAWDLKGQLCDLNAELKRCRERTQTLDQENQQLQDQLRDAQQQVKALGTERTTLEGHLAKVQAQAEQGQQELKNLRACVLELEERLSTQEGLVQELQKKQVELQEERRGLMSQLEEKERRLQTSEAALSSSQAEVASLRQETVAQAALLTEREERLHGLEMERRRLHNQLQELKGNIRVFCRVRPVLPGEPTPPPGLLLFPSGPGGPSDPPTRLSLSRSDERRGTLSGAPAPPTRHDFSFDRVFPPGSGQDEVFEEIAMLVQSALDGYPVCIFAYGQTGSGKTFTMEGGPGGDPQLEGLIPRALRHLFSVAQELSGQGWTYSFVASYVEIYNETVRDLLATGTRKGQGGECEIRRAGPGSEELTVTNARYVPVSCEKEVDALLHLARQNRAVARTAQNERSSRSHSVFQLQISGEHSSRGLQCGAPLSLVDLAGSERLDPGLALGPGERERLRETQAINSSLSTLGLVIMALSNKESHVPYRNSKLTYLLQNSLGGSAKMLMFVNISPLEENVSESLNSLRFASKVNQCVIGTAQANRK
Method: Reagents: (+4° C. Storage)Paclitaxel Prod.No.TXD.01 2 mM in DMSO (from Universal Biologicals Cambridge).Tubulin Protein (Pre-formed Microtubules): Bovine Brain Prod.No.MT001-XL Lot.025 10 mg/mL (from Universal Biologicals Cambridge).Reagents: (−80° C. Storage)MT001-XL—Tubulin Protein (Pre-formed Microtubules): Bovine Brain—reconstituted in buffer—15 mM PIPES pH7, 1 mM MgCl2, 20 μM paclitaxel (aliquots at 10 mg/mL) from Universal Biologicals Cambridge.HSET full length protein—Current batch is FL HSET Prep1 (SEQ-000096_002-01_01)Buffer is 20 mM Hepes pH 7.5, 200 mM NaCl, 2 mM TCEP, 5% glycerol (5 μL aliquots at 10.2 μM)Reagents: (−20° C. Storage)ADP-Glo Kinase Assay kit (Promega Prod.No.V9102) 10,000 assay pointsADP-Glo reagent (50 mL), Kinase Detection Reagent (100 mL), and Ultrapure ATP (10 mM) aliquotedBuffer Stocks (filtered and stored at rt for up to 1 month)HEPES acid, 4-(2-Hydroxyethyl)piperazine-1-ethanesulfonic acid MW:238, 238.3 mg/mL=1 M7149 mg/30 mL=1M (pH to 6.8 with 5 M NaOH)PIPES, 1,4-Piperazinediethanesulfonic acid MW: 302.4, 30.24 mg/mL=100 mM; 907.2 mg/30 mL=100 mM (pH to 7 with 5 M NaOH, white cloudy suspension until the pH changes)EGTA, Ethylene glycol-bis(2-aminoethylether)-N,N,N′,N′-tetraacetic acid MW: 380.35, 38.035 mg/mL=100 mM1901.75 mg/50 mL=100 mM (pH to ˜7 with 5 M NaOH)—takes a long time to get into solution and for pH to stabilizeTriton-X-100, MW: 625, 62.5 mg/mL=100 mM (6.25% w/v) (viscous, pipette Triton X-100 with a Gilson using a trimmed pipette tip)ECHO ProtocolCreate an ECHO intermediate plate by adding 24.5 μL DMSO to columns 1 & 2, and 40 μL DMSO to columns 23 & 24 of an ECHO 384PP plateAdd 100 nL of compound/DMSO per well in 384-well Proxi-Plate Plus (white) —Perkin Elmer Cat #6008289 using ECHO dose response protocol 100 nL normal to Assay buffer (Keep on ice): HEPES pH 6.8, MgCl2, EGTA, Triton X-100, DTT, HPLC H2O Microtubule Working Solution (3.2):1 ml PM buffer: PIPES pH 7.0, MgCl2, HPLC H2O, Paclitaxel, mix well, store at rtThen add 26.4 μL of 10 mg/ml microtubules to 724 μL of the above PM buffer to make 750 μL of microtubule working solution @350 μg/mL microtubules (store at rt)Stock HSET enzyme solution (3.1)—keep on iceAdd 1.33 μL 10.2 μM HSET Prepi (SEQ-000096_002-01_01) to 1358 μL assay buffer to make a 10 nM stock for a 5 nM final assay concentration (1/1020 dilution).HSET/Microtubule working solution (3.3)Mix solutions 3.1 and 3.2 in the ratio of 2.5:1 (1214.3 μL 3.1+485.7 μL 3.2) keep at rt for 15 min3.2 is diluted 3.5-fold, 3.1 is diluted 1.4-fold BLANK solution is 357 μL 2XAB+143 μL microtubule working solution 3.2. (Same proportions as HSET/Microtubule working solution (3.3))ATP Working solution is 1 μL 10 mM UltraPure ATP (Promega kit)+999 μL ddH20 gives 10 μM ATP for a 3 μM final assay concentration, stored on ice.Assay procedure in PROXIPLATE 384 PLUS WHITE (Perkin Elmer) plates (Remove 2.4 mL ADP Glo and 4.5 mL Kinase detection reagent from freezer to warm up to rt)Add 3.5 μL BLANK solution to assay plate (column 12)Add 3.5 μL HSET/Microtubule solution (3.3) (columns 1-11 & 13-24)Centrifuge at 1000 rpm for 1 min(pre-incubate enzyme and compound for 10 min)Add 1.5 μL of 10 μM ATP to start reaction gives a final [HSET] of 5 nM, [ATP] of 3 μM and [microtubule] of 70 μg/mL, centrifuge at 1000 rpm for 1 min and incubated at rt for 80 min.After the 80-minute incubation, stop reaction by adding 5 μL ADP-Glo reagent to all wells. Centrifuge for 1 min at 1000 rpm, leave for 40 min at rt.In the dark/away from direct light, add 10 μL Kinase Detection Reagent (KDR) to all wells, Seal plate with a Topseal (Perkin Elmer Cat #6050185) and centrifuge as above, leave for 40 min at rt covered in foil.

Row | IC50 | SMILES
1 | 199 nM | Cc1nc(NC(=O)CCNc2nccc3ccc(C#N)cc23)sc1C(C)(C)C [US20250084074, Example 50]
2 | 1600 nM | Cc1nc(NC(=O)CCNc2nccc3ccc(C#N)cc23)sc1C1(C(F)(F)F)CC1 [US20250084074, Example 51]
3 | 240 nM | Cc1nc(NC(=O)CCNc2nccc3c(F)cc(C#N)cc23)sc1C(C)(C)C [US20250084074, Example 53]
4 | 14 nM | Cc1nnn(-c2ccc3ccnc(NCCC(=O)Nc4nc(C)c(C(C)(C)C)s4)c3c2)n1 [US20250084074, Example 58]
5 | 78 nM | Cc1nc(-c2ccc3ccnc(NCCC(=O)Nc4nc(C)c(C(C)(C)C)s4)c3c2)no1 [US20250084074, Example 75]
6 | 1150 nM | Cc1nc(-c2ccc3ccnc(N[C@H]4C[C@@H](C(=O)Nc5nc(C)c(Br)s5)C4)c3c2)no1 [US20250084074, Example 97]
7 | 67 nM | CCCc1nc(-c2cnc(NC(=O)CCNc3nccc4ccc(-c5noc(C)n5)cc34)s2)no1 [US20250084074, Example 119]
8 | 2160 nM | Cc1nc(-c2cccc(C(=O)NCCC(=O)Nc3nc(C)c(C(F)(F)F)s3)c2)no1 [US20250084074, Example 139]
9 | 54 nM | CCCOC(=O)c1sc(NC(=O)[C@@H](N)CNC(=O)c2cccc(-c3noc(C)n3)c2)nc1C [US20250084074, Example 160]
10 | 2150 nM | CCc1nc(NC(=O)[C@@H](N)CNC(=O)c2cccc(-c3noc(C)n3)c2)sc1C(C)(C)C [US20250084074, Example 161]
11 | 3080 nM | CCCOC(=O)c1sc(C(=O)N2CC[C@@H](NC(=O)c3cccc(-c4noc(C)n4)c3)C2)nc1C [US20250084074, Example 241]
12 | 6400 nM | Cc1nc(-c2cccc(C(=O)NCCC(=O)Nc3cnn(C(=O)OC(C)(C)C)c3)c2)no1 [US20250084074, Example 274]
